Structures can show the parent of a compound that is named as a salt.
Experiment: In vitro inhibition of human platelet aggregation in suspension

IC50 [nM] | Compound
270 | O=C(O)CC(NC(=O)CCC(=O)Nc1ccc2c(c1)CNC2)c1ccccc1 (configuration not stated) [3-[3-(2,3-Dihydro-1H-isoindol-5-ylcarbamoyl)-propionylamino]-3-phenyl-propionic acid; hydrochloride]
2090 | O=C(O)CCNC(=O)CCC(=O)Nc1ccc2c(c1)CNC2 [3-[3-(2,3-Dihydro-1H-isoindol-5-ylcarbamoyl)-propionylamino]-propionic acid; hydrochloride]

Source: BindingDB's records for doi:10.1016/j.bmcl.2004.09.002 (A.V. Bogatsky Physico-Chemical Institute of The National …, 2004)
